Our source for the IC50, AC50 and EC50 values is ChEMBL document CHEMBL1201862, “PubChem BioAssay data set” (2004).

Test [1] in a line: Jurkat T cell cytotoxicity, dose response, cytotoxicity control for P. falciparum gametocyte viability project, luminescence (AID 1117277).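 Also: potency reflects loss of cellular ATP meaning fewer viable cells.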 In kind it is functional, cell-based.
A short description of test [2]: P. falciparum late gametocyte killing, dose response, luminescence (AID 1117278).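 Also: gametocytes exposed to compound for 24 hours.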 In kind it is functional, cell-based.
In test [3] the test system is Escherichia coli. Put plainly: microbe, parasite or virus in culture.
For test [4], the target named is NAD-dependent protein deacylase sirtuin-5, mitochondrial (Homo sapiens, UniProt Q9NXA8). Put plainly: SIRT5 desuccinylase inhibitors, dose response, biochemical, fluorescence imaging, cherry-pick, set 5 (AID 720591).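 Also: desuccinylation of succinyl peptide AMC substrate read as fluorescence after trypsin release; potency of inhibitors that lower fluorescence and may act on trypsin instead.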
Chain of NAD-dependent protein deacylase sirtuin-5, mitochondrial (Q9NXA8 whole entry): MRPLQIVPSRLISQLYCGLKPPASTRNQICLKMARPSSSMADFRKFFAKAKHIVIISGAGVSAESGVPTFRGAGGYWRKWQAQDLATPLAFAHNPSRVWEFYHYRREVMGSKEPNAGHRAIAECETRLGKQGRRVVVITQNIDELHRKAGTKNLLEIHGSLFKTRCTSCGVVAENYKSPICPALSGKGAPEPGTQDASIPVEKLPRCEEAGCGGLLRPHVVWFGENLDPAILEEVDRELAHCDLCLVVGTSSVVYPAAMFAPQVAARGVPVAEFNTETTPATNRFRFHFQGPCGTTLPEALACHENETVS
The test system of test [5] is Escherichia coli. Nature of the test: microbe, parasite or virus in culture. This is another data set of the same source.
Test [6] is described as follows: LGR2 antagonists, dose response, cell-based, HEK293, CRE-luciferase reporter, cherry pick, set 2 (AID 743343).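 Also: transfected cells were stimulated with diluted bursicon conditioned medium after compound addition.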 It is filed as functional. On the technique in general: In a reporter assay the amount or activity of a reporter protein is the signal.
A short description of test [7]: HepG2 cell cytotoxicity, dose response, cytotoxicity control, plate reader, cherry-pick, antagonist series (AID 743416). In kind it is functional, cell-based.
Test [8] in a line: HEK293 cell cytotoxicity, dose response, cytotoxicity control, plate reader, cherry-picked samples (AID 743446). In kind it is functional, cell-based.
The nature of test [9]: MC4R antagonists, dose response, counter-screen for LGR2 antagonist project, cell-based, plate reader, cherry pick (AID 743444).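 Also: transfected HEK 293 cells stimulated with alpha-MSH peptide; potency of inhibitors of the alpha-MSH evoked signal.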 In kind it is functional. For orientation: A counterscreen serves to expose hits that act by an unwanted route or on another target.
The nature of test [10]: A549 cell cytotoxicity, dose response, cytotoxicity control, plate reader, cherry-pick, antagonist series (AID 743412). In kind it is functional, cell-based.
In test [11] the target is Paired box protein Pax-8 (Homo sapiens, UniProt Q06710). Put plainly: inhibitors of PAX8-driven TPO luciferase reporter, dose response, RMG-I cells, cherry-pick (AID 687027).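 Also: luciferase reporter driven by Pax8 target thyroperoxidase promoter measured by SteadyGlo luminescence.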 In kind it is functional, cell-based.
Chain of Paired box protein Pax-8 (Q06710 whole entry): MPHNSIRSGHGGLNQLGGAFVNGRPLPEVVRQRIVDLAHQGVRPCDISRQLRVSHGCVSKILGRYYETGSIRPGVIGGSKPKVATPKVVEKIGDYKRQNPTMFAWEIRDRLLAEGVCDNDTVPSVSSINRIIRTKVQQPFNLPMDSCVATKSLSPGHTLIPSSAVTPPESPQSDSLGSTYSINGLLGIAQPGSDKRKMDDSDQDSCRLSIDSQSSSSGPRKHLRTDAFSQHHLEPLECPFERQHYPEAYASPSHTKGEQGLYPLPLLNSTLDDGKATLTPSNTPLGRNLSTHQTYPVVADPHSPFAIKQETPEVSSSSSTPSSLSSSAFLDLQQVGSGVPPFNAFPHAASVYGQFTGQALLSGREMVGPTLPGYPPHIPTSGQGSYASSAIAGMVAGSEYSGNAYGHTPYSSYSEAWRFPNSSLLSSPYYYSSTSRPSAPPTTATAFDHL
The nature of test [12]: Luminescence Cell-Based Dose Retest to Confirm Inhibitors of Cancer Stem Cells. [Related pubchem assays (depositor defined):AID2717, AID2721]. In kind it is functional. The settings on record: Homo sapiens.
Test [13] can be described thus: inhibitors of PGC1a acetylation in cells, dose response, cell-based, cherry-picked samples (AID 720514).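 Also: potency may reflect raised or lowered acetylation signal.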 It is filed as functional.
Test [14] is described as follows: Fluorescence-based cell-based high throughput dose response assay for inhibitors of the interaction of nucleotide-binding oligomerization domain containing 2 (NOD2) and the receptor-interacting serine-threonine kinase 2 (RIPK2). The settings on record: Homo sapiens. It is filed as functional.
A short description of test [15]: non-specific cell cytotoxicity, dose response, cytotoxicity control for PAX8 inhibitor project, plate reader, dry powder samples (AID 743021). In kind it is functional, cell-based.
Test [16] can be described thus: cells.
Test [17] has as its target T1, Oxysterols receptor LXR-beta (Homo sapiens, UniProt P55055).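 Also: Cell-based luminescence dose-response assay of agonist activity at LXR, run as a confirmatory counterscreen to a daf-12 agonist screen; HEK293 cells with Gal4-LXR fusion and GAL4-driven luciferase reporter; agonist potency from rising luciferase signal of a Gal4-LXR reporter.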
T1 sequence (P55055 whole entry): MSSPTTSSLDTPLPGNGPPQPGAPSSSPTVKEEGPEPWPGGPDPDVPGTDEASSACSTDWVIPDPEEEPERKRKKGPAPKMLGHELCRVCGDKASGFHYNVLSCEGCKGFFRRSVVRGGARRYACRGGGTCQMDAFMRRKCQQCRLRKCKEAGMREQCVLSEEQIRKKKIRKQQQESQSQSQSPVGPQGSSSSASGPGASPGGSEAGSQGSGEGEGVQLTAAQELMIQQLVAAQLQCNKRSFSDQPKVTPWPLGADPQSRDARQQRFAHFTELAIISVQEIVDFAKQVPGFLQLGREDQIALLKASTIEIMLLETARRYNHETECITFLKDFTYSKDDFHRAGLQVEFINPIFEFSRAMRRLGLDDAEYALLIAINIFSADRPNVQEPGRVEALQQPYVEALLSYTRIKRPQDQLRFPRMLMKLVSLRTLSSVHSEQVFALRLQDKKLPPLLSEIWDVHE
It is filed as functional, cell-based.

The nature of test [18]: HepG2 cell cytotoxicity, dose response, cytotoxicity control, ATP luminescence, cherry-pick, set 6 (AID 1053125). In kind it is functional, cell-based.
A short description of test [19]: cells. The settings on record: HEK293.
Test [20] deals with HEK293. Put plainly: HEK293T cell cytotoxicity, dose response, cytotoxicity control, ATP luminescence, cherry-pick samples (AID 687005).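 Also: cells exposed to compound for 48 hours.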 In kind it is functional, cell-based. The settings on record: Homo sapiens.
The subject of test [21] is HeLa. Nature of the test: HeLa cell cytotoxicity, dose response, cytotoxicity control, ATP luminescence, cherry-pick samples (AID 687004). It is filed as functional, cell-based. The settings on record: Homo sapiens.
The nature of test [22]: HEK293 Cytotoxicity Assay Measured in Cell-Based System Using Plate Reader - 7071-01_Inhibitor_Dose_CherryPick_Activity_Set2. It is filed as functional.
The nature of test [23]: NIH:OVCAR-3 ovarian cancer cell cytotoxicity, dose response, PAX8 inhibitor project, plate reader, dry powder samples (AID 743044). In kind it is functional, cell-based.
Test [24] can be described thus: cytotoxicity in OVCAR8 ovarian cancer cells, dose response, PAX8 project, cell-based, plate reader, dry powder samples (AID 743197). It is filed as functional. Particulars: OVCAR-8.
A short description of test [25]: IGROV1 ovarian cancer cell cytotoxicity, dose response, PAX8 inhibitor project, plate reader, dry powder samples (AID 743043). It is filed as functional, cell-based. Particulars: IGROV-1.
Test [26] in a line: A375 melanoma cell cytotoxicity, dose response, counter-screen for MITF inhibitor project, CellTiter-Glo luminescence, dry powder, set 6 (AID 624488). In kind it is functional, cell-based. The settings on record: A-375.
Test [27] can be described thus: TRPM1 promoter luciferase reporter signal decrease, dose response, MITF inhibitor project, cell-based, SK-MEL-5, dry powder, set 9 (AID 651588). It is filed as functional.
A short description of test [28]: MITF Measured in Cell-Based System Using Plate Reader - 2084-01_Inhibitor_Dose_DryPowder_Activity_Set6. It is filed as functional.
Test [29] is described as follows: A375 melanoma cell viability loss, dose response, counter-screen for MITF modulator project, CellTiter-Glo luminescence, dry powder, set 9 (AID 651591). Particulars: A-375. It is filed as functional, cell-based.
A short description of test [30]: MITF Measured in Cell-Based System Using Plate Reader - 2084-01_Inhibitor_Dose_DryPowder_Activity_Set7. It is filed as functional.
The nature of test [31]: MITF Orthogonal Assay: SK-MEL-5 CTG Assay Measured in Cell-Based System Using Plate Reader - 2084-02_Inhibitor_Dose_DryPowder_Activity_Set5. In kind it is functional.
Test [32] can be described thus: A375 melanoma cell viability loss, dose response, counter-screen for MITF inhibitor project, CellTiter-Glo luminescence, dry powder, set 4 (AID 624364).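 Also: A375 melanoma cells are MITF independent so this is a counter screen.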 Particulars: A-375. In kind it is functional, cell-based.
Test [33] in a line: A375 melanoma cell cytotoxicity, dose response, counter-screen for MITF inhibitor project, CellTiter-Glo luminescence, dry powder, set 7 (AID 624490). It is filed as functional, cell-based. Particulars: A-375.
A short description of test [34]: MALME3 melanoma cell viability reduction, dose response, orthogonal assay for MITF inhibitor project, CellTiter-Glo luminescence, dry powder, set 5 (AID 651584). It is filed as functional, cell-based. Particulars: MALME-3. (In general: ATP-based viability assays read luminescence as a measure of living cells.)
Test [35] in a line: SK-MEL-5 parental cell viability reduction, dose response, orthogonal assay for MITF inhibitor project, CellTiter-Glo luminescence, dry powder, set 8 (AID 651586). It is filed as functional, cell-based.
Test [36] is described as follows: SK-MEL-5 parental line viability, dose response, MITF inhibitor project, cell-based, CellTiter-Glo, dry powder, set 6 (AID 624429). It is filed as functional.
Test [37] can be described thus: cytotoxicity in primary human melanocytes, dose response, cytotoxicity control, cell-based, plate reader, dry powder (AID 651920). In kind it is functional.
A short description of test [38]: MITF Orthogonal Assay: MALME3 CTG Assay Measured in Cell-Based System Using Plate Reader - 2084-04_Inhibitor_Dose_DryPowder_Activity_Set6. It is filed as functional. Particulars: MALME-3.
Test [39] in a line: HIV Env cell-cell fusion inhibitors, dose response, HIV entry, plate reader, dry powder (AID 687023). In kind it is functional, cell-based.
Test [40] is described as follows: HepG2 cell cytotoxicity, dose response, cytotoxicity control, cherry-picked samples (AID 1159577). It is filed as functional, cell-based.
The nature of test [41]: P. falciparum Dd2 growth inhibitors, dose response, SYBR Green, cherry-picked samples (AID 1159567). It is filed as functional, cell-based.

The structures appear in SMILES notation. Active and inactive are the calls of the source.

By IC50 is commonly meant the point on the concentration scale where inhibition reaches its midpoint. On to `CC(C)c1nc2oc3c(O)ncnc3c2c2c1CCC2`, for which the results for the IC50 in [1] and in test [2] were > 83.3 µM (inactive) and > 109 µM (inactive), respectively.

Usually AC50 stands for the concentration at which the activity in the assay is half-maximal. On to `Nc1ccccc1SCc1cn2ccccc2n1`, for which the AC50 in test [3] was 19.9 µM (active); in [4], 20.6 µM (active); in [5] it was 7.26 µM (active).

For the compound `COc1ccc(-c2[nH]ncc2-c2csc(C)n2)c(O)c1`, the IC50 was > 83.3 µM (inactive) in test [1] and > 109 µM (inactive) in [2].

Take `COc1ccccc1N1CCN(C(C)C(=O)N2CC(C)OC(C)C2)CC1` (stereo not given): the AC50 in [4] is > 30 µM (inactive).

Consider `O=C(Cn1ncc(Cl)c(Cl)c1=O)NC(=O)NC1CCCCC1`, for which the AC50 in test [6] is 25.8 µM (active); in test [7], 7.9 µM (active); in [8], 7.89 µM (active); in test [9] it was 26.2 µM (active); in test [10], 7.17 µM (active); in [11], 2.85 µM (active). Moreover, the results for the AC50 in test [12] and in [13] were 1.81 µM (active) and 4.83 µM (active), respectively. Further, in test [14], the IC50 was 3.13 µM (active).

For the compound `CC(C)CN1CCN(C(=O)COC(=O)c2ccc(S(C)(=O)=O)c([N+](=O)[O-])c2)CC1`, the AC50 in [11] was 13 µM (active); in [15], 22.7 µM (active); in [13], 10.6 µM (active).

One may read the EC50 as the concentration needed to bring the measured effect to its halfway point. Turning to `NC(=O)c1c(NC(=O)c2ccccc2)sc2c1CCCC2`, the EC50 in [16] and in [17] was > 67.6 µM (inactive) throughout.

Consider `COc1ccc(CNC(=O)c2sc(=O)n(Cc3ccc(C)cc3)c2C)cc1OC`, for which the AC50 in [18] and in [19] was > 52 µM (inactive) throughout.

With `C[C@H]1CN([C@@H](C)CO)C(=O)Cc2cc(NC(=O)CCCCCC(=O)Nc3ccccc3N)ccc2O[C@H]1CN(C)Cc1ccc2c(c1)OCO2`, the AC50 in test [20] is 22.8 µM (active); in [21], 51.7 µM (active); in test [22] it was 22.8 µM (active).

On to `C[C@H]1CCCCO[C@H](CN(C)Cc2ccc(Cl)c(Cl)c2)[C@@H](C)CN([C@@H](C)CO)C(=O)c2cc(NC(=O)Nc3ccc(C(F)(F)F)cc3)ccc2O1`, for which the AC50 in [23] was 23.4 µM (active); in [24], 50.7 µM (active); in [25] it was 59 µM (active); in test [11], 9.26 µM (active).

Regarding `C[C@@H]1CN([C@H](C)CO)S(=O)(=O)c2ccc(-c3ccccc3)cc2O[C@H]1CN(C)C(=O)C1CCCCC1`, the results for the AC50 in test [20], in [21] and in test [22] were 16.2 µM (active), > 52 µM (inactive) and 16.2 µM (active), respectively.

As to `C[C@@H]1CCCCO[C@H](CN(C)Cc2ccc(Cl)c(Cl)c2)[C@@H](C)CN([C@@H](C)CO)C(=O)c2cc(NC(=O)Nc3ccc(C(F)(F)F)cc3)ccc2O1`, the half-maximal activity concentration (AC50) in test [23] is 40 µM (active); in test [24] it was > 70 µM (inactive); in [11], 4.2 µM (active).

As to `O=C1C(NS(=O)(=O)c2cccs2)=C(c2ccccc2)C(=O)c2ccccc21`, the AC50 is > 70 µM (inactive) in test [26]; > 70 µM (inactive) in [27]; 45.7 µM (active) in [28]; > 70 µM (inactive) in test [29]; 39.1 µM (active) in [30]; 65.9 µM (active) in [31]. Moreover, the AC50 in test [32], in test [33], in [34], in [35], in test [36] and in test [37] was > 70 µM (inactive) throughout. Also, the AC50 in test [38] was > 70 µM (inactive).

As to `Cc1noc(C)c1S(=O)(=O)Nc1cccc2c1O[C@@H](CN(C)Cc1ccc(C(F)(F)F)cc1)[C@@H](C)CN([C@@H](C)CO)C2=O`, the AC50 in test [39] is 53.5 µM (active).

Consider `C/C=C/c1ccc([C@@H]2[C@@H]3CN(Cc4ccc5c(c4)OCO5)C[C@H]2N3)cc1`, for which the AC50 in test [40] is 11.8 µM (active); in test [41], 4.09 µM (active).

As for `CO[C@H]1CN(C)C(=O)c2cc(NC(=O)c3ccc(Oc4ccccc4)cc3)ccc2OC[C@@H](C)NC[C@@H]1C`, the AC50 in test [40] is > 39 µM (inactive); in test [41] it was 6.05 µM (active).
